According to patent US9593146B2, “CD44v6-derived peptides for treating metastasizing cancer” (AMCURE GMBH, priority 2012, dated 2017):

What was measured:
Assay type in all cases: cell-based, human
Met = test: HGF induced activation of Met and Erk in endothelial cells; conditions: HUVEC, HAOEC and HCMEC; added before induction with HGF
Experimental: FIG. 12: CD44v6 is required for activation of Met and downstream signaling in several ECs. Different ECs (HUVEC, HAOEC and HCMEC) were serum starved and incubated with several reagents (aCD44v6, v6 14mer and the controls IgG and ctrl pep). The growth factor HGF was added and the cells were lysed. The proteins in the cell lysates were separated by SDS-PAGE and subjected to Western blot analysis. Activation of Met and of its downstream target Erk was detected by means of phospho-specific antibodies that detect phosphorylated forms of Met and Erk. In order to check equal loading of the different samples the membrane was incubated with stripping solution and reprobed with antibodies recognising all Met and Erk proteins. The numbers indicate the fold induction as calculated with the computer programme ImageJ.
When these ECs were treated with HGF, the receptor tyrosine kinase Met was phosphorylated and signaling to Erk—a downstream target of Met—was promoted (FIG. 12). The contribution of CD44v6 to Met signaling in these cells was analysed using different tools.

HUVEC = test: Angiogenic response of HUVECs to angiogenic Langerhans islets; conditions: HUVEC/collagen co-culture with islets, 5 to 7 days
Experimental: FIG. 20: The response of HUVECs to a mixture of angiogenic factors produced by angiogenic Langerhans islets can be reduced by CD44v6 specific inhibitors. HUVEC cells were mixed with CD44v6 antibody, CD44v6 peptide or control peptide and then suspended in a collagen gel. Hyperplastic angiogenic Langerhans islets isolated from the pancreas of 8-9 week old RIP1Tag2 mice were placed on top of the HUVEC/collagen mixture and overlaid with medium. Every third day new antibody or peptide was added and pictures were taken after 5 to 7 days. The number of islets that induced an angiogenic response of the ECs is given as percentage of all analysed islets. For quantification 60 islets per condition were analysed. Both the CD44v6 antibody and the CD44v6 peptide (human v6 14mer) reduced the angiogenic response, and the reduction obtained with the antibody is significant (p<0.05).
Langerhans islets are able to stimulate an angiogenic response when co-cultured with HUVEC cells in a collagen matrix. Such angiogenic hyperplastic islets of Langerhans were isolated by collagenase perfusion. They produce a mixture of angiogenic factors and thereby attract the ECs to get organised in capillary like structures. […] In agreement with published data around 60% of islets stimulated an angiogenic response in the control experiment (FIG. 20).

ErbB receptors [1] = test: EGF / TGFα induced Erk phosphorylation in MCF7; conditions: 100 ng/ml peptide
ErbB receptors [2] = test: ErbB ligand induced Erk-kinase phosphorylation in HT29 cells; conditions: HT29, 100 ng/ml peptide 5 min, 20 ng/ml ligand
Experimental: FIG. 15: In contrast to EGF and ER, induction of the ErbB-receptors via TGF-α, BC, Her, HB-EGF or AR is completely independent of CD44v6. Serum-starved HT29 cells were pre-incubated for 5 min with 100 ng/ml of a CD44v6-specific peptide (human v6 14mer) or a control peptide. Afterwards the cells were induced with 20 ng/ml of various ErbB ligands as indicated. The cell lysates were resolved by SDS-PAGE. Western-blotting was used to detect ErbB ligands-induced Erk-kinase phopshorylation.
For this purpose HT29 cells were serum-starved for 24 hours and pre-treated with the v6-specific or a control peptide. They were then induced with the indicated ErbB ligands. Erk-kinase phosphorylation was used as a read-out for receptor activation. All ligands could activate the Erk-kinase. […] These ligands are independent of CD44v6 for their induction of the ErbB receptors. This is especially striking, since EGF and TGF-α address the same receptor pairs (ErbB1/1 or ErbB1/2).

HT29 cells = test: HGF induced scattering of HT29 cells; conditions: HT29, HGF 50 ng/ml 24 h, human peptides prior to induction (FIG. 17)
Experimental: FIG. 17: The human CD44 v6 specific peptides block HGF induced cell scattering and invasion into matrigel. Scattering of HT29 cells was determined in 24-well plates. First, 4.5×10^4 cells were seeded at 37° C.; after 24 h the cells were serum starved for additional 24 h. the cells were either left untreated (control) or later treated with HGF (50 ng/ml) for 24 h. Where indicated the cells were treated with the v6 specific peptide (human v6 5mer, 10mer, 14mer) or control peptide prior to induction with HGF for 30 min. Pictures were made using phase contrast microscopy. Magnification 40×.
A scatter assay was performed additionally. HT29 colon cancer cells were grown in medium containing 10% FCS. One day after seeding, the cells were starved. On the third day, the cells were induced with HGF (10 ng/ml) and pre-incubated with either no peptide, ctrl-peptides (SEQ ID No.: 15), non-pegylated v6-peptides (SEQ ID No.: 11) or the pegylated peptides, namely PEG-rat control peptide and PEG-rat CD44v6 peptide.
Scattering of HT29 cells was determined in 24-well plates. First, 4×10^5 cells were seeded at 37° C.; the cells were either left untreated or 48 h later treated with HGF (50 ng/ml) for 24 h or with PEGylated or non-PEGylated peptides (100 ng/ml) prior to HGF induction for 30 min.

With “KEQWFGNRWHEGYR [human 14mer, human CD44v6 14mer peptide]” the “activation of Met and of its downstream target Erk” value (Met) was “able to prevent activation of Met and of its downstream target Erk”, the “angiogenic response of the ECs” value (HUVEC) was “reduced” and the “Erk phosphorylation upon EGF treatment” value (ErbB receptors [1]; 20 ng/ml EGF (FIG. 16)) was “blocking of Erk phosphorylation upon EGF treatment”. For the same sequence, the “Erk phosphorylation upon TGFα induction” value (ErbB receptors [1]; 20 ng/ml TGFα (FIG. 16)) was “not upon TGFα induction”, the “AR, BC, HB-EGF and TGF-α-induced activation of the ErbB receptors” value (ErbB receptors [2]) was “could not be inhibited” and the “EGF- and ER-dependent Erk phosphorylation” value (ErbB receptors [2]) was “inhibited”. The “HGF induced scattering or invasion through the extracellular matrix” value (HT29 cells) was “prevented completely scattering or invasion through the extracellular matrix”.
